Here are results for 17 molecules from PubChem BioAssay (NCI).

SMILES strings stand for the structures.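 96-well plates; 48 h exposure; 5 concentrations. Endpoints by linear interpolation between flanking doses. Not reached: highest tested concentration assigned. The concentration for full growth arrest is given as TGI.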

Common to all, as to assay: DTP human tumour cell line panel, 48 h
The test system of assay [1] is CAKI-1 renal.
The subject of assay [2] is OVCAR-5 ovarian.
The test system of assay [3] is SK-MEL-28 melanoma.
The subject of assay [4] is SK-MEL-5 melanoma.
The test system of assay [5] is OVCAR-3 ovarian.
For assay [6], the system named is SNB-19 CNS.
Assay [7] has as its system NCI-H23 lung.
In assay [8] the test system is HL-60(TB) leukemia.
The test system of assay [9] is TK-10 renal.
In assay [10] the test system is SF-295 CNS.
In assay [11] the test system is ACHN renal.
Assay [12] concerns SNB-75 CNS.
Assay [13] relates to OVCAR-8 ovarian.
In assay [14] the test system is DU-145 prostate.
The subject of assay [15] is BT-549 breast.
In assay [16] the test system is SK-OV-3 ovarian.
In assay [17] the test system is K-562 leukemia.
For assay [18], the system named is SF-268 CNS.
The test system of assay [19] is RXF 393 renal.

On to `O=c1oc2ccccc2c(O)c1/C=N/C(=S)NCc1ccccc1`, for which the TGI was 63.7 µM in [1]; greater than 100 µM in assay [2]; greater than 100 µM in [3]; greater than 100 µM in assay [4]; greater than 100 µM in assay [5]; greater than 100 µM in assay [6]. For the same molecule, the TGI in assay [7] is greater than 100 µM; in assay [8] it was greater than 100 µM; in assay [9] it was 51.8 µM; in [10], greater than 100 µM; in assay [11], greater than 100 µM; in assay [12] it was greater than 100 µM. The TGI in assay [13] was greater than 100 µM; in assay [14] it was greater than 100 µM; in assay [15] it was 41.5 µM; in assay [16] it was greater than 100 µM.

Take `CN(C)c1ccc(-c2c(C#N)c(O)n(NS(=O)(=O)c3ccccc3)c(=O)c2C#N)cc1`: the TGI in assay [1], in assay [2], in assay [17], in assay [18], in [3] and in assay [19] was greater than 100 µM throughout. The TGI in assay [4], in assay [6], in assay [8], in assay [9], in assay [11] and in [12] was greater than 100 µM each time. Moreover, the TGI was greater than 100 µM in assay [13], greater than 100 µM in [15] and 37 µM in assay [16].

As for `COC(=O)c1ccc(NCc2c(O)ccc(O)c2Br)cc1Cl`, the TGI amounted to 29.9 µM in assay [1]; 28.6 µM in [2]; 41.2 µM in assay [18]; 30.7 µM in assay [3]; 34.6 µM in assay [4]; 20.9 µM in assay [5]. Also, the TGI in [6] is greater than 100 µM; in assay [7], 32.9 µM; in assay [8] it was 4.52 µM; in [10] it was 35 µM; in assay [11], 30.6 µM; in assay [12] it was 70.2 µM. Besides, the TGI in assay [13] is 30 µM; in assay [14], 30.4 µM; in assay [15] it was 24.7 µM; in assay [16] it was greater than 100 µM.

As to `CCCCc1ccc(-n2sc3ncc([N+](=O)[O-])cc3c2=O)cc1`, the TGI worked out at 26.2 µM in assay [1]; 40.6 µM in assay [2]; 37.1 µM in [18]; 50.7 µM in assay [3]; 27.7 µM in [4]; 46.1 µM in assay [5]. In addition, the TGI came out at 48.6 µM in assay [6]; 24.1 µM in assay [7]; 38 µM in assay [8]; 61.9 µM in assay [9]; 27 µM in [10]; 28 µM in [11]. For the same molecule, the TGI in [12] is 57.2 µM; in assay [13], 61 µM; in assay [14], 57.9 µM; in [15], 33.9 µM; in [16], greater than 100 µM.

As to `CC(C)OP(=O)(OC(C)C)c1ccc2c(c1)OCCOCCOCCOCCO2`, the concentration for total growth inhibition (TGI) in assay [1], in assay [17], in [18], in assay [3], in assay [4] and in [6] was greater than 100 µM each time. Besides, the TGI in assay [7], in assay [8], in assay [9], in assay [10], in assay [11] and in assay [12] was greater than 100 µM in each case. The TGI in [13], in [14], in assay [15] and in assay [16] was greater than 100 µM throughout.

With `NNC1=N/C(=C\c2ccco2)C(=O)N1`, the total growth inhibition concentration (TGI) in [1], in assay [2], in assay [17], in assay [3], in assay [4] and in [5] was greater than 100 µM throughout. The TGI in assay [6], in assay [7], in [8], in [9], in assay [10] and in [11] was greater than 100 µM in each case. The TGI in assay [12], in assay [13], in [15] and in assay [16] was greater than 100 µM each time.

As for `Cc1ccc(C2SCC(=O)N2c2ccc(-c3ccc(-n4c(-c5ccccc5)nc5ccccc5c4=O)cc3)cc2)cc1` (centres undefined), the TGI in [1], in assay [2], in assay [17], in [18], in [3] and in assay [4] was greater than 100 µM each time. Further, the TGI in assay [5], in assay [6], in assay [7], in assay [8], in assay [9] and in assay [10] was greater than 100 µM each time. Besides, the TGI in [11], in assay [13], in assay [14], in assay [15] and in [16] was greater than 100 µM each time.

As to `O=C1C(Cl)C2(CC(/C=C/c3ccccc3O)=NN2c2cccc(S(=O)(=O)O)c2)N1c1nc2ccccc2s1` (centres undefined), the TGI was 45.8 µM in assay [2]; 86.1 µM in assay [17]; 43.4 µM in assay [18]; 71.2 µM in [3]; greater than 100 µM in [19]; 26.1 µM in assay [4]. In addition, the TGI in [6] was greater than 100 µM; in assay [7], 33.2 µM; in assay [8], 14.5 µM; in assay [9], 26 µM; in assay [11] it was 53 µM; in assay [12], greater than 100 µM. In addition, the TGI in [13] stood at 63.9 µM; in assay [15], 34.9 µM.

For `CSc1cc(Br)ccc1-n1c(C(=O)c2ccccc2)c(SC)n(-c2ccccc2)c1=O`, the TGI in assay [1], in assay [2], in assay [17], in assay [18], in assay [3] and in assay [4] was greater than 100 µM each time. The TGI in assay [5], in assay [6], in assay [7], in assay [9], in assay [10] and in assay [11] was greater than 100 µM throughout. Besides, the TGI in assay [12], in [13], in [15] and in assay [16] was greater than 100 µM in each case.

Take `Cc1ccc(Nc2[nH]c(=O)[nH]c(=O)c2C)cc1Cl`: the TGI in [1], in assay [2], in [17], in assay [18], in assay [3] and in assay [19] was greater than 100 µM throughout. Further, the TGI in assay [4] is greater than 100 µM; in assay [5], greater than 100 µM; in [6], greater than 100 µM; in [7], greater than 100 µM; in assay [9], greater than 100 µM; in [10], 72.3 µM. The TGI in assay [11], in [12], in assay [13], in assay [15] and in assay [16] was greater than 100 µM each time.

Take `Cc1ccc(N=C2S/C(=C3/CCC=C3N3CCOCC3)N(c3ccc(Cl)cc3)C2=Nc2ccc(C)cc2)cc1`: the TGI in [2], in [17], in assay [3], in [19], in assay [4] and in assay [6] was greater than 100 µM in each case. The TGI in assay [7], in assay [8], in assay [9], in [11], in [12] and in [13] was greater than 100 µM in each case. The molecule further returned a TGI in assay [15] greater than 100 µM.

As to `S=C(N/N=C/c1ccccn1)Nc1ccc(Cl)cc1`, the TGI in assay [1] was 30.5 µM; in assay [2] it was greater than 100 µM; in [18], greater than 45.7 µM; in assay [3], greater than 100 µM; in assay [4], 15.5 µM; in assay [5], greater than 100 µM. Further, the TGI was greater than 39 µM in assay [6]; greater than 100 µM in assay [7]; 0.0796 µM in assay [8]; greater than 96 µM in assay [9]; greater than 91.7 µM in [10]; 1.66 µM in [11]. Moreover, the TGI in assay [12] was 8.74 µM; in assay [13], greater than 42.8 µM; in assay [14], greater than 100 µM; in assay [15] it was greater than 68.1 µM; in [16], 10.5 µM.

Take `O=C(O)CCNC(=O)c1cc(N(CCBr)CCBr)c([N+](=O)[O-])cc1[N+](=O)[O-]`: the TGI in assay [1], in assay [2], in assay [17], in assay [18], in [3] and in assay [4] was greater than 100 µM throughout. Also, the TGI in [5], in assay [6], in assay [7], in [8], in assay [9] and in assay [10] was greater than 100 µM throughout. The TGI in assay [11], in assay [12], in [13], in [15] and in assay [16] was greater than 100 µM in each case.

In the case of `CCCCCCCNC(P(=O)(O)O)P(=O)(O)O`, the TGI in [1], in [2], in assay [17], in assay [18], in assay [3] and in assay [4] was greater than 100 µM each time. Further, the TGI in [5], in [6], in assay [7], in [8], in assay [9] and in assay [10] was greater than 100 µM throughout. Further, the concentration for total growth inhibition (TGI) is greater than 100 µM in assay [11]; 43.3 µM in assay [12]; greater than 100 µM in assay [13]; greater than 100 µM in assay [14]; greater than 100 µM in assay [15]; greater than 100 µM in assay [16].

`CCOC(=O)/C(N=Nc1ccc(-n2c(C)nc3ccc(Br)cc3c2=O)cc1)=C(/C)O`: the TGI is greater than 100 µM in [1]; greater than 100 µM in assay [2]; greater than 100 µM in assay [17]; greater than 100 µM in [18]; greater than 100 µM in [3]; 31.9 µM in assay [4]. Moreover, the TGI in assay [5], in assay [6], in assay [7], in [8], in assay [9] and in [10] was greater than 100 µM in each case. Moreover, the TGI was greater than 100 µM in assay [11]; 86.7 µM in [12]; greater than 100 µM in [13]; greater than 100 µM in assay [14]; greater than 100 µM in assay [15]; greater than 100 µM in assay [16].

For the molecule `Cc1cc(=O)[nH]c2cc(NC(=O)C(CCCN=C(N)N)NC(=O)OCc3ccccc3)ccc12` (centres undefined), the TGI in assay [1], in [2], in assay [17], in [18], in assay [3] and in assay [4] was greater than 100 µM throughout. Also, the TGI in assay [5], in assay [6], in assay [7], in [8], in assay [9] and in assay [10] was greater than 100 µM throughout. Further, the TGI in assay [11] was greater than 100 µM; in [12], greater than 100 µM; in [13], greater than 100 µM; in assay [14] it was greater than 100 µM; in assay [15], greater than 100 µM; in assay [16], 25.6 µM.

`NC(=O)C(=CNC(=S)Nc1ccc(Cl)c(Cl)c1)C(N)=O`: the TGI in [1] is greater than 100 µM; in [2], greater than 100 µM; in assay [17] it was greater than 100 µM; in assay [18] it was greater than 100 µM; in [3], greater than 100 µM; in assay [19], greater than 95.7 µM. Besides, the TGI in assay [4], in assay [5], in [6], in [7], in assay [8] and in assay [9] was greater than 100 µM each time. Besides, the TGI in assay [10], in assay [11], in [12], in [13], in assay [14] and in [16] was greater than 100 µM each time.
